Measurements published in patent US5324648A, “Substituted isocoumarins as serine protease inhibitors and anti-inflammatory agents” (Georgia Tech Research Corporation, priority 1992, dated 1994).

What was measured:
complement protein D = complement protein D (Homo sapiens, UniProt P00746); assay: Inactivation rate of complement protein D; type: biochemical; conditions: Table II; pH 7.5, 25° C; [I] 0.05 to 1.29 mM; read-out: kobs/[I]
Protocol: (§1) Inactivation rates of serine proteases by substituted isocoumarins were measured by the incubation method. An aliquot of inhibitor (25 or 50 μl) in Me2 SO was added to a buffered enzyme solution (0.01-2.3 μM) to initiate the inactivation. Aliquots (50 μl) were withdrawn at various intervals and the residual enzymatic activity was measured. Me2 SO concentration in the reaction mixture was 8-12% (v/v). 0.1 Hepes, 0.01M CaCl2, pH 7.5 buffer was utilized for trypsin and coagulation enzymes. 0.1M Hepes, 0.5M NaCl, pH 7.5 was utilized for other serine proteases. The inhibitor concentrations are shown in all the tables. Peptide thioesters or peptide nitroanilides with appropriate sequence were used as substrates for various serine proteases. All peptide thioester hydrolysis rates were measured with assay mixtures containing 4,4'-dithiodipyridine (ε324 =19800M^-1 cm^-1; Grasetti & Murray, Arch. Biochem. Biophys. 119, pp 41-49 (1967)). Peptide 4-nitroanilide nitroanilide hydrolysis was measured at 410 nm (ε410 =8800M^-1 cm^-1; Erlanger et al., Arch. Biochem. Biophys. 95, pp 271-278 (1961)). First order inactivation rate constant (kobs) were obtained from plots of ln (vt /vo) vs time, and the correlation coefficients were greater than 0.98.
^a Conditions were 0.1M Hepes, 0.5M NaCl, pH 7.5, 8-10% Me2 SO
and 25° C. Inactivation rates were measured by incubation method.
Enzyme concentrations were as follows: protein D, 1-9 μM; C2, 0.7-1
μM; B, 1.8 μM; Bb, 0.3-0.8 μM; Cl^- s, 0.07 μM; Cl^-

bovine trypsin = target: T1, bovine trypsin (Bos taurus, UniProt P00760); assay: Inactivation rate of bovine trypsin; type: biochemical; conditions: Table I; pH 7.5, 25° C; [I] 1 to 12 μM; read-out: kobs/[I]
T1 sequence (P00760 24-246): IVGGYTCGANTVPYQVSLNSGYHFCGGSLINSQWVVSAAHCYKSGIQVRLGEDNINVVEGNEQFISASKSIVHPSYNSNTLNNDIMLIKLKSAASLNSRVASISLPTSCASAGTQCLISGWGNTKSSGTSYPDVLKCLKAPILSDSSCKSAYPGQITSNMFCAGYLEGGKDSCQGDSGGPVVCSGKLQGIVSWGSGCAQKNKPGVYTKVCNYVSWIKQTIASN
Protocol: as §1
(§2) ^a Conditions were as 0.1M Hepes, 0.01M CaCl2, pH 7.5 and 8-12%
(§3) Me2 SO and 25° C. Rate constants were measured by incubation
(§4) method unless otherwise noted. An aliquot of inhibitor was added to an
(§5) enzyme solution and aliquots removed with time and assayed for remaining
(§6) enzymatic activity. Firstorder rate constants, kobs were obtained
(§7) from the plots of ln(vt /vo) versus time.
(§8) ^a Inhibition rates were measured in 0.1M Hepes, 0.01M CaCl2, pH
(§9) 7.5 buffer, 8% Me2 SO and at 25° C.

[1] = target: T2, porcine pancreatic kallikrein (Sus scrofa, UniProt P00752); assay: Inactivation rate of porcine pancreatic kallikrein; type: biochemical; conditions: Table I; pH 7.5, 25° C; [I] 0.4 to 300 μM; read-out: kobs/[I]
T2 construct: from tissue; host or cells: porcine pancreas (from the name)
T2 sequence (P00752 8-246): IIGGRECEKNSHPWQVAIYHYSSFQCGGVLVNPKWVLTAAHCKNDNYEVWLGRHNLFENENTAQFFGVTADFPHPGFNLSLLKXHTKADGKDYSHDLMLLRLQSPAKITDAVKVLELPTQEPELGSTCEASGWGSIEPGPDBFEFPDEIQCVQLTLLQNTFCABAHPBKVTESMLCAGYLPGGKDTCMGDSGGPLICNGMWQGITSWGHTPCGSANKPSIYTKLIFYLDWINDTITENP

[2] = Spontaneous hydrolysis in Hepes buffer; type: physicochemical; conditions: hepes buffer; 0.1 Hepes, 0.5M NaCl, pH 7.5, 9% Me2SO, 25° C; read-out: t1/2 for spontaneous hydrolysis
Protocol: ^a Conditions were 0.1 Hepes, 0.5M NaCl, pH 7.5 and 9% Me2 SO at
25° C. Spontaneous hydrolysis rates were measured
spectrophotometrically by monitoring the decrease in absorbance due to th
isocoumarin ring system (wavelength 335-380 nm) using the firstorder rate

human factor XIa = target: T3, human factor XIa (Homo sapiens, UniProt P03951); assay: Inactivation rate of human factor XIa; type: biochemical; conditions: Table I; pH 7.5, 25° C; [I] 3 to 330 μM; read-out: kobs/[I]
T3 construct: human factor XIa
T3 sequence (P03951 388-625 limits assumed): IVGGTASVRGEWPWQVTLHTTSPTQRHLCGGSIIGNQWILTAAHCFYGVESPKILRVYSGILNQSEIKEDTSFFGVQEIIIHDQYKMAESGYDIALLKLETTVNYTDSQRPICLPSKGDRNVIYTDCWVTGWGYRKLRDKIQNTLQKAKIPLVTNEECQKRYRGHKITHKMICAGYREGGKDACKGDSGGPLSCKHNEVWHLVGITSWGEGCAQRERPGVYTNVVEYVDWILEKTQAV
T3 sequence (P03951 19-387 partner limits assumed): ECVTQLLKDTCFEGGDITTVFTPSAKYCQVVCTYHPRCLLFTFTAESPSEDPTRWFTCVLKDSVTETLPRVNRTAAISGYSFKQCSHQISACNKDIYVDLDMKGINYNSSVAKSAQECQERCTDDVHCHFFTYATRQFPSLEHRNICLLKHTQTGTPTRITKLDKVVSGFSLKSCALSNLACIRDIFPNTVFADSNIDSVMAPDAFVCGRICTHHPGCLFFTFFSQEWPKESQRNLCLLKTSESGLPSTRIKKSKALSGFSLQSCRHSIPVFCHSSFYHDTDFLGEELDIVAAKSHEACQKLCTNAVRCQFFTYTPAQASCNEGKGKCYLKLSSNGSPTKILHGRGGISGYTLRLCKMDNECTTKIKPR
Protocol: as §1, §2, §3, §4, §5, §6, §7, §8, §9

bovine thrombin = target: T4, bovine thrombin (Bos taurus, UniProt P00735); assay: Inactivation rate of bovine thrombin; type: biochemical; conditions: Table I; pH 7.5, 25° C; [I] 0.3 to 400 μM; read-out: kobs/[I]
T4 construct: bovine thrombin
Protocol: as §1, §2, §3, §4, §5, §6, §7, §8, §9

cathepsin G = target: T5, cathepsin G (Homo sapiens, UniProt P08311); assay: Inactivation of cathepsin G; type: biochemical; conditions: Table IV; not time dependent; at 0.53 mM
T5 construct: from tissue; host or cells: human leukocytes
T5 sequence (P08311 21-255): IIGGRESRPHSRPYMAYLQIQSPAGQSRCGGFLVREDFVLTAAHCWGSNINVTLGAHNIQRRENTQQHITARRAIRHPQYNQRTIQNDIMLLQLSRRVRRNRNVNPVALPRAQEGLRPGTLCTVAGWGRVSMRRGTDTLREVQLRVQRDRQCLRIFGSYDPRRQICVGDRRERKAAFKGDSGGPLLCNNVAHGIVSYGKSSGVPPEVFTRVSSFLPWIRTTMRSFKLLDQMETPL

[3] = target: T6, human leukocyte elastase (HLE) (Homo sapiens, UniProt P08246); assay: Inactivation of human leukocyte elastase (HLE); type: biochemical; conditions: Table IV; pH 7.5, 25° C; [I] 0.001 to 0.18 mM; read-out: kobs/[I]
T6 construct: from tissue; host or cells: human leukocytes (from the name)
T6 sequence (P08246 30-267): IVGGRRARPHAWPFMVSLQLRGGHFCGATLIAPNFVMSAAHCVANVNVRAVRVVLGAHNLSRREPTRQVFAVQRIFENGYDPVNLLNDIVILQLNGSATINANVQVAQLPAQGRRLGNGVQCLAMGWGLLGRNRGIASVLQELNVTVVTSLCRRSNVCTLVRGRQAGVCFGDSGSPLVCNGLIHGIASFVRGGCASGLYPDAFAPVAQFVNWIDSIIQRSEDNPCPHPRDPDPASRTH
Protocol: Inactivation rates of serine proteases by substituted isocoumarins were measured by the incubation method. An aliquot of inhibitor (25 or 50 μl) in Me2 SO was added to a buffered enzyme solution (0.01-2.3 μM) to initiate the inactivation. Aliquots (50 μl) were withdrawn at various intervals and the residual enzymatic activity was measured. Me2 SO concentration in the reaction mixture was 8-12% (v/v). 0.1 Hepes, 0.01M CaCl2, pH 7.5 buffer was utilized for trypsin and coagulation enzymes. 0.1M Hepes, 0.5M NaCl, pH 7.5 was utilized for other serine proteases. […] Peptide thioesters or peptide nitroanilides with appropriate sequence were used as substrates for various serine proteases. All peptide thioester hydrolysis rates were measured with assay mixtures containing 4,4'-dithiodipyridine (ε324 =19800M^-1 cm^-1 ; Grasetti & Murray, Arch. Biochem. Biophys. 119, pp 41-49 (1967)). Peptide 4-nitroanilide nitroanilide hydrolysis was measured at 410 nm (ε410 =8800M^-1 cm^-1 ; Erlanger et al., Arch. Biochem. Biophys. 95, pp 271-278 (1961)). First order inactivation rate constant (kobs) were obtained from plots of ln (vt /vo) vs time, and the correlation coefficients were greater than 0.98.
^a Inactivation rates were measured at 0.1M Hepes, 0.5 NaCl, pH 7.5,
8-12% Me2 SO and 25° C. by incubation method.
^a Inhibition rates were measured in 0.1M Hepes, 0.05M NaCl, pH 7.5
buffer, 8-9% Me2 SO and at 25° C.
^a Inhibition constants were in 0.1M Hepes, 0.5M NaCl, pH 7.5 buffer,
8-9% Me2 SO and at 25° C.
^a Inhibition rates were measured in 0.1M Hepes, 0.5M NaCl, 2.5%
Me2 SO, pH 7,5 and at 25° C.
^a Inhibition was measured in 0.1M Hepes, 0.5M NaCl, pH 7.5 buffer,
5-10% Me2 SO and at 25° C. Suc--Val--Pro--Phe--NA (0.48 mM)
was used as the substrate for chymotrypsin and cat G.
^a Inhibition rates were measured in 0.1M Hepes, 0.5M NaCl, pH 7.5

human factor XIIa = target: T7, human factor XIIa (Homo sapiens, UniProt P00748); assay: Inactivation rate of human factor XIIa; type: biochemical; conditions: Table I; pH 7.5, 25° C; [I] 3 to 330 μM; read-out: kobs/[I]
T7 construct: human factor XIIa
T7 sequence (P00748 373-615 limits assumed): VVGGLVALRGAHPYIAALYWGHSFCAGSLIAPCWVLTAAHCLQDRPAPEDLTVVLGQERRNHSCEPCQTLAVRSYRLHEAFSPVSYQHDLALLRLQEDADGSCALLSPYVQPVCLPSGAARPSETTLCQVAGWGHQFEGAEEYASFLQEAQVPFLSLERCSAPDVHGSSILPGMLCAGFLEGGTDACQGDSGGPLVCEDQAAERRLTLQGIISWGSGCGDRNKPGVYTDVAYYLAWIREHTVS
T7 sequence (P00748 20-372 partner limits assumed): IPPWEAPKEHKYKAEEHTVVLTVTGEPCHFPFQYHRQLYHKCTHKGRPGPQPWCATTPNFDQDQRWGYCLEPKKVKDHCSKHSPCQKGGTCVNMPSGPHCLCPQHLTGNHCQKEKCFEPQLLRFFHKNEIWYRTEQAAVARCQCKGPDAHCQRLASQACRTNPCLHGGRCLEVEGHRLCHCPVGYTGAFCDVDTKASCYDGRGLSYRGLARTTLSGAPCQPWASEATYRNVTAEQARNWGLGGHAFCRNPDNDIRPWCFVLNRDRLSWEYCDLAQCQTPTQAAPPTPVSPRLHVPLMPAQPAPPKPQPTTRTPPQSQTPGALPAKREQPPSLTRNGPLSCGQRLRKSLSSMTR
Protocol: as §1, §2, §3, §4, §5, §6, §7, §8, §9

human plasma kallikrein = target: T8, human plasma kallikrein (Homo sapiens, UniProt P03952); assay: Inactivation rate of human plasma kallikrein; type: biochemical; conditions: Table I; pH 7.5, 25° C; [I] 3 to 330 μM (footnote g); read-out: kobs/[I]
T8 construct: human plasma kallikrein; from tissue; host or cells: human plasma (from the name)
T8 sequence (P03952 391-638 limits assumed): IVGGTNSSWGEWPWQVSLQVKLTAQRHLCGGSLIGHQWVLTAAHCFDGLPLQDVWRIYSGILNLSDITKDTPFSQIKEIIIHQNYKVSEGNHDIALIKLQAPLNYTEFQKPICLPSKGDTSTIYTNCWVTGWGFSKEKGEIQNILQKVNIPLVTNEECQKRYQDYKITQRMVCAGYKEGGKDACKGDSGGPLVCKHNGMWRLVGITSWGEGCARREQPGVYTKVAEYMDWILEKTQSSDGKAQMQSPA
T8 sequence (P03952 20-390 partner limits assumed): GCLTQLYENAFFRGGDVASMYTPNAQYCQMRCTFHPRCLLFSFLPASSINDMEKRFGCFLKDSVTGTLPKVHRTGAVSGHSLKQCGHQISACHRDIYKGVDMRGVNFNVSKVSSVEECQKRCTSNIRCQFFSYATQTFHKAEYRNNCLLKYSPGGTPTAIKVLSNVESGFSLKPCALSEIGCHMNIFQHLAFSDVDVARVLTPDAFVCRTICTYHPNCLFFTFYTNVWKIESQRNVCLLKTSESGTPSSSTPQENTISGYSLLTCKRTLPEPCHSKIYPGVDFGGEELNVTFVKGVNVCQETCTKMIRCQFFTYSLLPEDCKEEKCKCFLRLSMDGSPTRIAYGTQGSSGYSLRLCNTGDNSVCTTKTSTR
Protocol: as §1, §2, §3, §4, §5, §6, §7

[4] = target: sheep lung lymph tryptase; assay: Inactivation rate of sheep lung lymph tryptase; type: biochemical; conditions: Table III; pH 7.5, 25° C; [I] 10 to 460 μM
Protocol: Inactivation rates of serine proteases by substituted isocoumarins were measured by the incubation method. An aliquot of inhibitor (25 or 50 μl) in Me2 SO was added to a buffered enzyme solution (0.01-2.3 μM) to initiate the inactivation. Aliquots (50 μl) were withdrawn at various intervals and the residual enzymatic activity was measured. […] 0.1 Hepes, 0.01M CaCl2, pH 7.5 buffer was utilized for trypsin and coagulation enzymes. […] The inhibitor concentrations are shown in all the tables. Peptide thioesters or peptide nitroanilides with appropriate sequence were used as substrates for various serine proteases.
^a Inactivation rates were measured at 0.1M Hepes, 0.5M NaCl, pH 7.5
buffer, 8% Me2 SO and 25° C.

bovine factor Xa = target: T9, bovine factor Xa (Bos taurus, UniProt P00743); assay: Inactivation rate of bovine factor Xa; type: biochemical; conditions: Table I; pH 7.5, 25° C; [I] 0.4 to 310 μM; read-out: kobs/[I]
T9 construct: bovine factor Xa
T9 sequence (P00743 234-492 limits assumed): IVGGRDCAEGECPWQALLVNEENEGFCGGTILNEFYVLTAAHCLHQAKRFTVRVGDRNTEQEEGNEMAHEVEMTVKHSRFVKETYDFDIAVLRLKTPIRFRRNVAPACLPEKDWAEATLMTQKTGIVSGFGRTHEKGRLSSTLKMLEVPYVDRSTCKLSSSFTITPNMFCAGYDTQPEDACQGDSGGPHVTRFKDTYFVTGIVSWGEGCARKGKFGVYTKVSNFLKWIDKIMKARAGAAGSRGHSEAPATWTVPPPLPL
T9 sequence (P00743 41-180 partner limits assumed): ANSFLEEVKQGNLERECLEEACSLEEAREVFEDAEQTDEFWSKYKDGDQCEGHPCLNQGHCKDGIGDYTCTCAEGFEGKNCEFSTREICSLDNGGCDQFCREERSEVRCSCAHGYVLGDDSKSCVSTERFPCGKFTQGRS

chymotrypsin = chymotrypsin (Bos taurus, UniProt P00766); assay: Inactivation of chymotrypsin; type: biochemical, bovine; conditions: Table IV; pH 7.5, 25° C; [I] 0.004 to 0.33 mM; read-out: kobs/[I]

complement protein D, sequence (P00746 26-253): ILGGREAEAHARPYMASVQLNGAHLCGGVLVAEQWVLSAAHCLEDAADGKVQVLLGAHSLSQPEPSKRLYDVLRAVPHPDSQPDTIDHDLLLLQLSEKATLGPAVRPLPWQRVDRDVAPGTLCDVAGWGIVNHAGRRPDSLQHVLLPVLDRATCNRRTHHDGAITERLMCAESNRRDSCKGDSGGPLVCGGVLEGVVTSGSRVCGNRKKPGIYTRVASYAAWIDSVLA

kinact/KI (complement protein D)	kinact/KI (bovine trypsin)	kinact/KI [1]	half-life [2]	kinact/KI (human factor XIa)	kinact/KI (bovine thrombin)	inhibition at 530 µM (cathepsin G)	kinact/KI [3]	kinact/KI (human factor XIIa)	kinact/KI (human plasma kallikrein)	kobs/[I] [4]	kinact/KI (bovine factor Xa)	kinact/KI (chymotrypsin)	Structure (SMILES)
0.25 M⁻¹ s⁻¹	–	–	–	–	–	–	–	–	–	–	–	–	CCOc1oc(=O)c2ccccc2c1Cl [3-ethoxy-4-chloroisocoumarin, reference compound]
1.3 M⁻¹ s⁻¹	–	–	–	–	–	–	–	–	–	–	–	–	COc1oc(=O)c2cc(N)ccc2c1Cl [7-amino-3-methoxy-4-chloroisocoumarin, reference compound]
–	45000 M⁻¹ s⁻¹	16000 M⁻¹ s⁻¹	140 min	1200 M⁻¹ s⁻¹	5700 M⁻¹ s⁻¹	87%	0.9 M⁻¹ s⁻¹	690 M⁻¹ s⁻¹	62000 M⁻¹ s⁻¹	150 M⁻¹ s⁻¹	11000 M⁻¹ s⁻¹	2600 M⁻¹ s⁻¹	N=C(N)Nc1ccc2cc(OCCc3ccccc3)oc(=O)c2c1 [7-guanidino-3-(2-phenylethoxy)isocoumarin]
